Assays:
[1] = test system: Stat5 and Jak2 phosphorylation in PC cells; assay: ENZ-induced Jak2-Stat5 phosphorylation in PC cells (IP and WB); type: cell-based; details: CWR22Pc, LAPC4 and CWR22Pc-ENZ-R cells; AZD1480 800 nM, 12 days
Experimental: CWR22Pc and LAPC4 PC cells were treated with ENZ or vehicle for the indicated periods of time. Levels of active Stat5 were determined by immunoprecipitation (IP) of Stat5 followed by immunoblotting (WB) for pStat5a/b and total Stat5. Whole cell lysates (WCL) were immunoblotted for pStat3, Stat3 and Actin. […] CWR22Pc and LAPC4 cells were transduced with lentiviral AR shRNA (shAR) or lenti-shCtrl for 3 days followed by treatment with ENZ or vehicle for 7 days at the indicated concentrations.
PC cells were cultured with ENZ or Jak2 inhibitor AZD1480 (800 nM) alone or in combination for 12 days. Expression levels of active Stat5 were determined by IP of Stat5 followed by WB for pStat5a/b and total Stat5. WCLs were immunoblotted for pStat3, Stat3 and Actin. […] Jak2 was suppressed by lentiviral Jak2 shRNA vs. shCtrl in PC cells for 3 days followed by ENZ or vehicle for 7 days. Active Stat5, Stat5 and Jak2 levels were evaluated by IP and WB, as depicted. […] PC cells were treated with ENZ or vehicle for 6 h at the indicated concentrations. Control cells were stimulated with prolactin (Prl) (10 nM) for 20 min as control for cytokine-induced Jak2 phosphorylation. […] Alternatively, PC cells were treated with ENZ or vehicle for 12 days or stimulated with Prl for 20 min at the indicated concentrations. Stat5 and Jak2 were IP:ed and WB:ed for pStat5, pJak2, tot Stat5, and total Jak2.
To investigate whether AR is required for ENZ induction of Stat5 signaling, we inhibited AR expression in CWR22Pc and LAPC4 cells by genetic knockdown using lentiviral expression of AR shRNA (FIG. 9C).
To further assess the involvement of Jak2 in ENZ-induced Stat5 activation, Jak2 was genetically knocked down by lentiviral expression of Jak2 shRNA in CWR22Pc and LAPC4 cells for 3 days followed by ENZ treatment for 7 days.

[2] = test system: FL-AR, AR-V7 and AR-V9 mRNA and AR protein levels in PC cells; assay: AR mRNA (qRT-PCR) and AR / pYStat5 protein (immunoblot) in PC cells treated with Jak2 inhibitors; type: cell-based; details: for FL and AR-V AR mRNA and protein levels: CWR22Rv1 CRPC cell line, FIGS. 6A-6B
Experimental: Jak2 was inhibited for 3 days by Jak2 inhibitors AZD1480, gandotinib, pacritinib, baricitinib or fedratinib at indicated concentrations followed by RNA extraction and quantification of FL-AR, AR-V7 and AR-V9 mRNA levels by qRT-PCR.
Immunoblot analysis of AR expression in PC cells treated with increasing concentrations of Jak2 inhibitors AZD1480, gandotinib, pacritinib or baricitinib for 72 h.
(§1) We tested whether Stat5 regulation of AR mRNA and protein levels provides an opportunity to control AR levels pharmacologically by inhibition of Jak2 signaling. […] Finally, to evaluate the effect of PAC and FED on PC cell viability, CWR22Rv1 cells were treated with increasing concentrations of PAC or FED for 3 days.

[3] = test system: AR mRNA and protein levels in CWR22Pc tumors; assay: AR levels in CWR22Pc xenograft tumors in nude mice; type: in vivo; details: 40 mg/kg i.p. daily for 40 days
Experimental: FIG. 4A. Pharmacological Stat5 inhibition decreases AR protein and mRNA levels in PC xenograft tumors in nude mice. Nuclear AR and Stat5 levels were detected by immunostaining of paraffin-embedded tissue sections of CWR22Pc tumors from mice treated with IST5-002 (IST5) (40 mg/kg; i.p.) for 40 days. Also, AR mRNA levels were evaluated by q-RT-PCR. FIG. 4B. Pharmacological inhibition of Stat5 by IST5-002 or pacritinib suppress AR mRNA levels in patient-derived PCs cultured ex vivo. Clinical PCs (n=4) obtained from prostatectomies were cultured for 7 days ex vivo in 3D tumor explant cultures in the presence of Stat5 inhibitor IST5-002 (12.5 μM) or PAC (1 μM) vs. vehicle, and AR mRNA levels were analyzed by qRT-PCR.
To evaluate whether Stat5 regulation of AR mRNA and protein levels is evident in an in vivo setting where PC cells were grown as xenograft tumors in mice, CWR22Pc cells (1.5×10^7) were inoculated subcutaneously into flanks of nude mice (one tumor/mouse). After tumors reached approximately 100 mm^3 in size (12 d), mice were treated daily for 40 days by intraperitoneal injection with IST5-002 (40 mg/kg body weight) or vehicle (0.3% hydroxypropyl cellulose/H2O) (5 mice/group). AR mRNA and protein levels were evaluated by q-RT-PCR(47) and by immunohistochemistry, as previously described(18, 45, 46, 48, 49).

[4] = test system: AR mRNA and protein in PC cells that survive ENZ treatment; assay: AR expression in CWR22PC cells surviving ENZ treatment; type: cell-based, human; details: ENZ 5 days, then PAC or FED for 4 days
[5] = test system: FL-AR and AR-V protein levels in CWR22Rv1 cells; assay: Pilot experiment: FED on AR protein levels in CWR22Rv1 cells (IB); type: cell-based; details: CWR22Rv1, 4 days
From the text: Jak2 was inhibited for 4 days by fedratinib (FED) at indicated concentrations followed by quantification of FL-AR, AR-V7 and AR-V9 protein levels by IB.
We conducted a pilot experiment to test the efficacy of FED in suppressing AR levels in PC cells (FIG. 16).

[6] = test system: CWR22PC PC cells that survive treatment with ENZ; assay: Viability of CWR22PC cells surviving ENZ treatment; type: cell-based, human; details: ENZ 5 days, then 300 nM for 4 days
Experimental: The PC cells were treated with ENZ (or vehicle) for 5 days, and were then treated with ENZ, vehicle, PAC, or FED for 4 days.
The effect of PAC and FED in blocking the growth of PC cells that survive treatment with the anti-androgen enzalutamide (ENZ) was tested in CWR22PC PC cells. The PC cells were treated in culture with ENZ (or vehicle) for 5 days, and were then treated with ENZ (40 μM), vehicle, PAC (300, 600 or 1200 nM), or FED (300, 600 or 1200 nM) for 4 days. […] Thus, PAC and FED can be used to reduce ENZ resistant PC cell growth.

[7] = test system: AR-FL, AR-V7 and AR-V9 mRNA expression; assay: Low concentrations of FED and PAC on AR mRNA expression; type: cell-based; details: 0-0.6 μM
Experimental: As a preliminary study, we tested whether low contrations of FED and PAC (0, 0.01875, 0.0375, 0.075, 0.15, 0.3, 0.6 μM) reduce mRNA expression of full-length (AR-FL) and variant (AR-V7 and AR-V9) forms of AR.

[8] = test system: AR mRNA and protein expression in CWR22PC cells; assay: PAC and FED on AR expression after Stat5-shRNA in CWR22PC cells; type: cell-based, human; details: lentiviral Stat5-shRNA
From the text: We tested whether PAC and FED are able to further reduce AR mRNA and/or protein expression following genetic suppression of AR gene expression via lentiviral expression of Stat5-shRNA in CWR22PC cells.

[9] = test system: androgen-responsive PC cell viability; assay: PC cell viability time-course versus androgen withdrawal (crystal violet staining and cell counting); type: cell-based
From the text: Crystal violet staining and cell counting were used to compare PC viability over a time-course of 2-10 days between cells treated with ADT and control (+ADT), cells treated with PAC and control (+DMSO), cells treated with FED and control (+DMSO), cells treated with Jak2 knockdown (shJak2) and control (shCtrl), and cells treated with Stat5 knockdown (shStat5) and control (shCtrl).
Next, we compared the effect of androgen deprivation therapy (ADT) carried out by androgen withdrawal, which is the standard therapy used to treat advanced prostate, to the effect of PAC and FED on androgen-responsive PC cell viability over a time-course of 2-10 days using crystal violet staining and cell counting. Based on this analysis, ADT decreased cell viability by 30% compared to control (+DHT), PAC decreased cell viability by 82% after 4 days of treatment and by 96% after 6 days of treatment compared to the control (+DMSO), FED decreased cell viability by 87% after 4 days of treatment and by 98% after 6 days of treatment compared to control (+DMSO), Jak2 knockdown (shJak2) decreased cell viability by 92% after 4 days of lentivirus infection and by 95% after 6 days of lentivirus infection compared to control (shCtrl), and Stat5 knockdown (shStat5) decreased cell viability by 96% after 4 days of lentivirus infection and by 98% after 6 days of lentivirus infection compared to control (shCtrl) (FIG. 25).

[10] = test system: CWR22Rv1 PC cells; assay: Death / viability of CWR22Rv1 PC cells treated with Jak2 inhibitors; type: cell-based; details: for IC50: 72 h, CWR22Rv1, at 3 days, read-out: IC50, induction of death of CWR22Rv1 PC cells
Experimental: as §1

[11] = test system: AR-FL, AR-V7 and AR-V9 expression and Stat5 phosphorylation in PC cell lines; assay: Clinical grade versus research grade pacritinib: Stat5 phosphorylation and AR expression in PC cell lines; type: cell-based
Experimental: Control cells were treated with […] (ShCtrl).
The ability of clinical grade pacritinib (CTI Biopharma) to inhibit Stat5 phosphorylation and suppress AR expression in prostate cancer cells in vitro was compared to that of research grade pacritinib (MedChem Express (MCE)) and to cells in which Jak2 was knocked down using lentivirus expressing Jak2-shRNA (shJak2). […] Thus, clinical grade pacritinib induces the same effects as research grade pacrtinib, suppressing AR levels and reducing PC cell viability.

[12] = test system: AR protein levels in CWR22PC cells; assay: Time-course of AR protein levels in CWR22PC cells; type: cell-based, human; details: timepoints 12-72 h

Cc1cc(Nc2nc(N[C@@H](C)c3ncc(F)cn3)ncc2Cl)n[nH]1 [AZD1480, 5-chloro-2-N-[(1S)-1-(5-fluoropyrimidin-2-yl)ethyl]-4-N-(5-methyl-1H-pyrazol-3-yl)pyrimidine-2,4-diamine]
ENZ-induced Stat5 phosphorylation [1]: blocked ENZ-induced Stat5 phosphorylation | FL and AR-V AR mRNA and protein levels [2]: dose-dependent reduction

O=P(O)(O)OC[C@H]1O[C@@H](n2cnc3c(NCc4ccccc4)ncnc32)[C@H](O)[C@@H]1O [IST5-002]
AR mRNA and protein expression in PC tumors in vivo [3]: marked decrease in AR mRNA and protein expression

CCS(=O)(=O)N1CC(CC#N)(n2cc(-c3ncnc4[nH]ccc34)cn2)C1 [baricitinib, 2-[1-Ethylsulfonyl-3-[4-(7H-pyrrolo[2,3-d]pyrimidin-4-yl)pyrazol-1-yl]azetidin-3-yl]acetonitrile]
FL and AR-V AR mRNA and protein levels [2]: dose-dependent reduction

Cc1cnc(Nc2ccc(OCCN3CCCC3)cc2)nc1Nc1cccc(S(=O)(=O)NC(C)(C)C)c1 [fedratinib, N-tert-Butyl-3-{5-methyl-2-[4-(2-pyrrolidin-1-yl-ethoxy)-phenylamino]-pyrimidin-4-ylamino}-benzenesulfonamide]
AR expression at mRNA and protein level in PC cells that survive ENZ treatment [4]: reduces expression of AR at both the mRNA and protein level | FL-AR and AR-V protein levels [5]: depletes FL-AR and AR-V protein levels almost entirely | growth / viability of PC cells surviving ENZ treatment [6]: able to block the growth PC cells surviving ENZ treatment with very high efficacy | FL and AR-V AR mRNA and protein levels [2]: dose-dependent reduction | mRNA expression of AR-FL, AR-V7 and AR-V9 versus concentration [7]: AR expression levels decrease with increased concentrations | further reduction of AR mRNA/protein expression after Stat5-shRNA [8]: no further decrease in AR expression levels | decrease in cell viability compared to control (+DMSO) ([9]; after 4 days of treatment): 87% | decrease in cell viability compared to control (+DMSO) ([9]; after 6 days of treatment): 98% | IC50 [10]: 300 nM

Cc1cc(Nc2cc(CN3CCOCC3)c3nc(C)c(Cc4ccc(Cl)cc4F)n3n2)n[nH]1 [gandotinib, 3-(4-Chloro-2-fluorobenzyl)-2-methyl-N-(5-methyl-1H-pyrazol-3-yl)-8-(morpholinomethyl)imidazo[1,2-b]pyridazin-6-amine]
FL and AR-V AR mRNA and protein levels [2]: dose-dependent reduction | IC50 [10]: 300 nM

N#CCNC(=O)c1ccc(-c2ccnc(Nc3ccc(N4CCOCC4)cc3)n2)cc1 [momelotinib]
AR protein levels in PC cells ([2]; 72 h, immunoblot, FIG. 6B): did not result in the suppression of AR protein levels | AR mRNA levels in PC cells ([2]; 3 days, qRT-PCR, FIG. 6A): does not suppress AR expression in PC cells | FL and AR-V AR mRNA and protein levels [2]: dose-dependent reduction | Stat5 phosphorylation ([2]; prostate cancer cells, FIG. 6B): does not inhibit Stat5 phosphorylation | induction of death of PC cells ([10]; FIG. 7D, 7E): does not provide the same effect of beneficial induction of cell death

C1=C/COCc2cc(ccc2OCCN2CCCC2)Nc2nccc(n2)-c2cccc(c2)COC/1 [pacritinib, (16E)-11-[2-(1-Pyrrolidinyl)ethoxy]-14,19-dioxa-5,7,26-triazatetracyclo[19.3.1.12,6.18,12]heptacosa-1(25),2(26),3,5,8,10,12(27),16,21,23-decaene]
AR expression at mRNA and protein level in PC cells that survive ENZ treatment [4]: reduces expression of AR at both the mRNA and protein level | efficacy in suppressing AR protein expression relative to research grade pacritinib ([11]; CWR22PC and CWR22Rv1, FIG. 18): has higher efficacy than research grade pacritinib (MCE) | phosphorylation of Stat5 ([11]; CWR22Pc, LAPC4): decreases phosphorylation of Stat5 | AR expression at the protein level ([11]; CWR22Rv1 and CWR22PC): caused a reduction in AR expression at the protein level | mRNA expression of AR-FL, AR-V7 and AR-V9 ([11]; CWR22Rv1 and CWR22PC): reduced mRNA expression levels of both full-length (AR-FL) and variant (AR-V7 and AR-V9) forms of AR | efficacy in suppressing AR mRNA expression relative to research grade pacritinib ([11]; CWR22Rv1 and CWR22PC, FIG. 17): has higher efficacy than research grade pacritinib (MCE) | growth / viability of PC cells surviving ENZ treatment [6]: able to block the growth PC cells surviving ENZ treatment with very high efficacy | FL and AR-V AR mRNA and protein levels [2]: dose-dependent reduction | mRNA expression of AR-FL, AR-V7 and AR-V9 versus concentration [7]: AR expression levels decrease with increased concentrations | further reduction of AR mRNA/protein expression after Stat5-shRNA [8]: no further decrease in AR expression levels | decrease in cell viability compared to control (+DMSO) ([9]; after 4 days of treatment): 82% | decrease in cell viability compared to control (+DMSO) ([9]; after 6 days of treatment): 96% | time after treatment at which AR protein levels start to decrease [12]: 48 h | IC50 [10]: 300 nM

Reference: patent US20220323444A1, “Methods of Treating Advanced Prostate Cancer” (The Medical College of Wisconsin, Inc., priority 2019, published 2022)
